Data reported in ChEMBL document CHEMBL2074533, “OATP1B1, OATP1B3, and mrp2 are involved in hepatobiliary transport of olmesartan, a novel angiotensin II blocker” (Drug Metab Dispos, 2006).

Legend:
[1] = biological target: ATP-binding cassette sub-family C member 2 (Rattus norvegicus, UniProt Q63120); assay: TP_TRANSPORTER: biliary excretion in EHBR rat; assay type: functional, organism-based, Bile; conditions: in vivo
OATP1B3 = biological target: T1, OATP1B3 (Homo sapiens, UniProt Q9NPD5); assay: TP_TRANSPORTER: transport in OATP1B3-expressing oocytes; assay type: functional, cell-based, Oocyte
T1 sequence (Q9NPD5 whole entry): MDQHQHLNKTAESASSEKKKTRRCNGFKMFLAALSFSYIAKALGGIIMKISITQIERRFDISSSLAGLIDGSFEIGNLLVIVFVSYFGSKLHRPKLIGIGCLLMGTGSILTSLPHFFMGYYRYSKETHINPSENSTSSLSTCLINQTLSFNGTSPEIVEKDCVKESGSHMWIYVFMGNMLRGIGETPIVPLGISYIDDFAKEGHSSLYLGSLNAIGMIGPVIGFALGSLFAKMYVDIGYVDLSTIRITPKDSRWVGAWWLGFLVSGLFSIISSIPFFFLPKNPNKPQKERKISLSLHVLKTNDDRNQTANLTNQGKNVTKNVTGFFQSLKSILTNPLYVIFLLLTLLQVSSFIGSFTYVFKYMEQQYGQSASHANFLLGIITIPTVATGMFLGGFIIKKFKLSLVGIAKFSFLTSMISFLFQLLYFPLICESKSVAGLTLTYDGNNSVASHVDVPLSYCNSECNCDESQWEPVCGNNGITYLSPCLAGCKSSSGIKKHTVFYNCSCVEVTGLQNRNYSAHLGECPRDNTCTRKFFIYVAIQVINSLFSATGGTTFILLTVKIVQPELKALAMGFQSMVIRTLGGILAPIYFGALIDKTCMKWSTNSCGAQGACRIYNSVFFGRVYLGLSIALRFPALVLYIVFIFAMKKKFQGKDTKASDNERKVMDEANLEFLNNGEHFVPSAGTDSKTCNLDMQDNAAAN

[2] = biological target: T2, ATP-binding cassette sub-family C member 2 (Homo sapiens, UniProt Q92887); assay: TP_TRANSPORTER: transport in hCMV cells; assay type: functional, cell membranes, Canalicular membrane vesicle
[3] = biological target: T2, ATP-binding cassette sub-family C member 2; assay: TP_TRANSPORTER: transport in MRP2-expressing vesicles; assay type: functional, subcellular
[4] = biological target: T3, Hepatic sodium/bile acid cotransporter (Homo sapiens, UniProt Q14973); assay: TP_TRANSPORTER: transport in NTCP-transfected HEK-293 cells; assay type: functional, cell-based; conditions: hek293
T3 sequence (Q14973 whole entry): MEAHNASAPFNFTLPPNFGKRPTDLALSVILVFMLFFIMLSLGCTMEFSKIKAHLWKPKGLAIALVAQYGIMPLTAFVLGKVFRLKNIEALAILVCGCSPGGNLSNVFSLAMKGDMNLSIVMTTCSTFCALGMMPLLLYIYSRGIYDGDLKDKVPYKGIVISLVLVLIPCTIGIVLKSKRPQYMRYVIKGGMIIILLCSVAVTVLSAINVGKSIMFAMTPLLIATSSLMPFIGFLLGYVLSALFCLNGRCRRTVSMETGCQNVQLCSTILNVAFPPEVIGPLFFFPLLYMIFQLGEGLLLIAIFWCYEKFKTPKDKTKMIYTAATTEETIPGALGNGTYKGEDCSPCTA

[5] = substrate: CCCc1nc(C(C)(C)O)c(C(=O)O)n1Cc1ccc(-c2ccccc2-c2nnn[nH]2)cc1; assay: TP_TRANSPORTER: transport in OATP1B1-expressing oocytes; assay type: functional, cell-based, Oocyte

T2 sequence (Q92887 whole entry): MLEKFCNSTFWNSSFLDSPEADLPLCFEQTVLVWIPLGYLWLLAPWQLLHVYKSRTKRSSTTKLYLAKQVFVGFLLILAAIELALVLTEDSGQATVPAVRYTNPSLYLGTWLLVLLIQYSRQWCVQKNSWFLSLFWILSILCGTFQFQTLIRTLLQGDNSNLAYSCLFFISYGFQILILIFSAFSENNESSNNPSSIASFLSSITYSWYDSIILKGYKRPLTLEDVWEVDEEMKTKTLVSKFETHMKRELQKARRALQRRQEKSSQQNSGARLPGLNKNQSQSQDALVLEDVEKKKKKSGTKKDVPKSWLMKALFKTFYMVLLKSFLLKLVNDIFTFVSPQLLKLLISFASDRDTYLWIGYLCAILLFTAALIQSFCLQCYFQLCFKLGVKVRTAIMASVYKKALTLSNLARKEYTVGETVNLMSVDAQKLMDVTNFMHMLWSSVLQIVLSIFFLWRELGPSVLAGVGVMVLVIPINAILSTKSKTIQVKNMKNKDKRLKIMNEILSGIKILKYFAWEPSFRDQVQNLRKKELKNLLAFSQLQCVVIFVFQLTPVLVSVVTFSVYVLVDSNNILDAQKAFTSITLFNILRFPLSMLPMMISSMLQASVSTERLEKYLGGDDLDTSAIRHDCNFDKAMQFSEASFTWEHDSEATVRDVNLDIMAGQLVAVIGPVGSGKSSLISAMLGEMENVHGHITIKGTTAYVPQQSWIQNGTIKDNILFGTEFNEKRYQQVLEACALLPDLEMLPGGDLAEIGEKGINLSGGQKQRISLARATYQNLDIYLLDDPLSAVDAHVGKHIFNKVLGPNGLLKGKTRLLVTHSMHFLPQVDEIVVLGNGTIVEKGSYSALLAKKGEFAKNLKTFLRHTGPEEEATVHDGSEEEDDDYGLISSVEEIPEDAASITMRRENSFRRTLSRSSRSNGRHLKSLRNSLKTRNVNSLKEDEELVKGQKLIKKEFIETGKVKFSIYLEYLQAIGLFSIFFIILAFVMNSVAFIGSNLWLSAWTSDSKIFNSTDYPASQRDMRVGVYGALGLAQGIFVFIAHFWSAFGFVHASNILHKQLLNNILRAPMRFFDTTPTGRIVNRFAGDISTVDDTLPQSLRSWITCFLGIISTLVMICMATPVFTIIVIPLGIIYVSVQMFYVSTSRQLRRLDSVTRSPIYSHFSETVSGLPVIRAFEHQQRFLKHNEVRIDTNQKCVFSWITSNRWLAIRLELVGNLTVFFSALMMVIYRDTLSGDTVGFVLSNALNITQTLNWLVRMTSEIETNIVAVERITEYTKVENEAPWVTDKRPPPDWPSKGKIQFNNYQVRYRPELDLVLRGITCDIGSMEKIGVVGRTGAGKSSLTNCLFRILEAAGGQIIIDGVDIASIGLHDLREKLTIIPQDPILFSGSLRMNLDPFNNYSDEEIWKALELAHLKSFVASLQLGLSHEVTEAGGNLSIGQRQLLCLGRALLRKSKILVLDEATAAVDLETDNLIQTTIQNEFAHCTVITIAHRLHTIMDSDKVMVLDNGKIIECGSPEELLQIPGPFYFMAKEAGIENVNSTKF
ATP-binding cassette sub-family C member 2 (Rattus norvegicus, UniProt Q63120), sequence (Q63120 whole entry): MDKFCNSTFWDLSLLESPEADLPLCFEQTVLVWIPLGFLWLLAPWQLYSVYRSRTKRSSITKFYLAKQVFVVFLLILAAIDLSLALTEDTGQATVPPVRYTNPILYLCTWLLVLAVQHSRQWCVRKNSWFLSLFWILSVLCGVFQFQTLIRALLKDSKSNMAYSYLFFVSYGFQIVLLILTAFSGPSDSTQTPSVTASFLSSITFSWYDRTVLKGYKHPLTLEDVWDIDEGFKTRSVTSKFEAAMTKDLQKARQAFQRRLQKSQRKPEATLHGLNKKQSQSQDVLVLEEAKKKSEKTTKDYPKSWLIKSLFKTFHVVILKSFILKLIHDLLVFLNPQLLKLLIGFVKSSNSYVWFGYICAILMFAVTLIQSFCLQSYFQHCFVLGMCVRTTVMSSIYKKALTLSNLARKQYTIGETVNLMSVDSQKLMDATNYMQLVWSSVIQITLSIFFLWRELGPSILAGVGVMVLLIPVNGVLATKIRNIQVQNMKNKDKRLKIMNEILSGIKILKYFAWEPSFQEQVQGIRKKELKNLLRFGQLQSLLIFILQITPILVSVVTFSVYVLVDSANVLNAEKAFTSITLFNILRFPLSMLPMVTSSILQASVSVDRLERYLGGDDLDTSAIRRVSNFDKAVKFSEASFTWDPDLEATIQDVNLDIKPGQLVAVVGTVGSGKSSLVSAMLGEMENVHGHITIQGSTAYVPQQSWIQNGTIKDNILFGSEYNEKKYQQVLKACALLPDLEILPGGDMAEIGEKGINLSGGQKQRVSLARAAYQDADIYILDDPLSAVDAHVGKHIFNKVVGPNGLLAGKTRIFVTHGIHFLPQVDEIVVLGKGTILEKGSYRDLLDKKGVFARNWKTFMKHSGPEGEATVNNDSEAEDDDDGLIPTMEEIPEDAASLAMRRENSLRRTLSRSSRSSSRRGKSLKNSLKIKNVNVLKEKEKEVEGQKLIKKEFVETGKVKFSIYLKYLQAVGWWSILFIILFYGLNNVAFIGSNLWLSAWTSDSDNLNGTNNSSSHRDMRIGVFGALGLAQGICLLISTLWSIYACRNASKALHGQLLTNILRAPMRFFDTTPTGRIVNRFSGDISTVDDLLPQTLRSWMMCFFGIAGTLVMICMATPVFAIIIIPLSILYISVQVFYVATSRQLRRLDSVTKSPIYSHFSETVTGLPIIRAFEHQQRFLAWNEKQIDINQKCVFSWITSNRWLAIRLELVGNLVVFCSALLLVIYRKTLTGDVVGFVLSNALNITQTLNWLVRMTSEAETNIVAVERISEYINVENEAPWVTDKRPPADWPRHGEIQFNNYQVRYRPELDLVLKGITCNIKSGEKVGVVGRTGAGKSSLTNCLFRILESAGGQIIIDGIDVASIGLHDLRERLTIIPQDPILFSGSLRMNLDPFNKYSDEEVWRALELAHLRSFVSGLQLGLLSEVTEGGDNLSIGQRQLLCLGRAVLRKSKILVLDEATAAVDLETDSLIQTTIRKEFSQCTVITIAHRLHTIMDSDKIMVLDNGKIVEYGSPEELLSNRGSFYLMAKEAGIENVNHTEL

Activity [1]	Km (OATP1B3)	Activity [2]	Activity [3]	Activity [4]	Molecule	Km [5]
substrate [+]	71.8 µM	substrate [+]	substrate [+]	is not a substrate [-]	CCCc1nc(C(C)(C)O)c(C(=O)O)n1Cc1ccc(-c2ccccc2-c2nnn[nH]2)cc1 [OLMESARTAN]	–
–	–	–	–	–	Solute carrier organic anion transporter family member 1B1 (Homo sapiens) (protein) MDQNQHLNKTAEAQPSENKKTRYCNGLKMFLAALSLSFIAKTLGAIIMKSSIIHIERRFEISSSLVGFIDGSFEIGNLLVIVFVSYFGSKLHRPKLIGIGCFIMGIGGVLTALPHFFMGYYRYSKETNINSSENSTSTLSTCLINQILSLNRASPEIVGKGCLKESGSYMWIYVFMGNMLRGIGETPIVPLGLSYIDDFAKEGHSSLYLGILNAIAMIGPIIGFTLGSLFSKMYVDIGYVDLSTIRITPTDSRWVGAWWLNFLVSGLFSIISSIPFFFLPQTPNKPQKERKASLSLHVLETNDEKDQTANLTNQGKNITKNVTGFFQSFKSILTNPLYVMFVLLTLLQVSSYIGAFTYVFKYVEQQYGQPSSKANILLGVITIPIFASGMFLGGYIIKKFKLNTVGIAKFSCFTAVMSLSFYLLYFFILCENKSVAGLTMTYDGNNPVTSHRDVPLSYCNSDCNCDESQWEPVCGNNGITYISPCLAGCKSSSGNKKPIVFYNCSCLEVTGLQNRNYSAHLGECPRDDACTRKFYFFVAIQVLNLFFSALGGTSHVMLIVKIVQPELKSLALGFHSMVIRALGGILAPIYFGALIDTTCIKWSTNNCGTRGSCRTYNSTSFSRVYLGLSSMLRVSSLVLYIILIYAMKKKYQEKDINASENGSVMDEANLESLNKNKHFVPSAGADSETHC	42.6 µM
